Assay results from patent US20080113900A1, “Pharmaceutical compositions and therapeutic applications for the use of a synthetic vitamin B12 derivative, glutathionylcobalamin” (priority 2006, published 2008).
“And” between values parts separate entries of the source, which are not always exact repeats. Identical values can stand only once.

System: SK-HEP-1 cells
Assay: Protection of endothelial cells from H2O2-induced cell death (MTS assay)
Assay type: cell-based, human
Set-up: key to Cell viability (MTS assay): cell viability as % survival
Settings: for Cell viability (MTS assay): SK-HEP-1, n = 6 replicates
Description: The effect of increasing concentrations of NACCbl and GSCbl to protect endothelial cells from the effect of H2O2 was assessed. […] Cell viability was determined by MTS® assay. […] FIG. 3 illustrates that NACCbl and GSCbl protect endothelial cells from the effect of H2O2. […] Cell viability was determined by MTS® assay. […] There was no difference between the protection afforded by NACCbl and that by GSCbl. Both required 100 μM to achieve >80% survival.

[1] = 2 hours, then 25 μM H2O2 24 hours

CC(=O)NC(C[S-])C(=O)O.CC1=C2N=C(C=C3N=C(C(C)=C4[N-]C(C(CC(N)=O)C4(C)CCC(=O)NCC(C)OP(=O)([O-])OC4C(CO)OC(n5cnc6cc(C)c(C)cc65)C4O)C4(C)N=C1C(CCC(N)=O)C4(C)CC(N)=O)C(CCC(N)=O)C3(C)C)C(CCC(N)=O)C2(C)CC(N)=O.[Co+3] [NACCbl, N-acetyl-L-cysteinylcobalamin]
Difference between protection by NACCbl and by GSCbl (25 μM H2O2 24 hours): no difference
Concentration required to achieve >80% survival [1]: 100 µM
Preincubation concentration that protected cells from H2O2-induced cell death [1]: ≥ 2.0 µM
Cell viability (MTS assay) (compound 30 μM two hours, then H2O2 200 μM a further two hours): 5.2108 and 7.153 and 1.99 and 0.6632
Cell viability (MTS assay) (compound concentration 6.25, 2 hours, then 25 μM H2O2 24 hours): 42.8195 and 42.09 and 39.39 and 30.9 and 28 and 38.4058
Cell viability (MTS assay) (compound concentration 12.5, 2 hours, then 25 μM H2O2 24 hours): 45.26 and 41.7 and 44.99 and 45.5863 and 42.23 and 47.36
Cell viability (MTS assay) (compound concentration 25, 2 hours, then 25 μM H2O2 24 hours): 46.9 and 46.77 and 45.26 and 42.69 and 45.72 and 48.16
Cell viability (MTS assay) (compound concentration 100, 2 hours, then 25 μM H2O2 24 hours): 61.5942 and 56.59 and 70.22 and 74.37 and 64.23 and 61.79
Cell viability (MTS assay) (compound concentration 200, 2 hours, then 25 μM H2O2 24 hours): 100.7246 and 99.7365 and 101.8445 and 107.3123 and 92.69 and 97.56
